Experimental findings from PMC10130320, “Extracellular enzymes secreted in the mycelial block of Lentinula edodes during hyphal growth” (AMB Express, 2023) are described below.

Each structure is given as a SMILES string. Where a name gives a salt, the structure may show the parent alone.

One assay has as its target T1, Lcc13 (Lentinula edodes, UniProt A0A0P0ZBE8).
T1 construct: native, partially purified from sawdust medium (fraction P2-2), 61 kDa on SDS-PAGE
T1 sequence (A0A0P0ZBE8 20-520): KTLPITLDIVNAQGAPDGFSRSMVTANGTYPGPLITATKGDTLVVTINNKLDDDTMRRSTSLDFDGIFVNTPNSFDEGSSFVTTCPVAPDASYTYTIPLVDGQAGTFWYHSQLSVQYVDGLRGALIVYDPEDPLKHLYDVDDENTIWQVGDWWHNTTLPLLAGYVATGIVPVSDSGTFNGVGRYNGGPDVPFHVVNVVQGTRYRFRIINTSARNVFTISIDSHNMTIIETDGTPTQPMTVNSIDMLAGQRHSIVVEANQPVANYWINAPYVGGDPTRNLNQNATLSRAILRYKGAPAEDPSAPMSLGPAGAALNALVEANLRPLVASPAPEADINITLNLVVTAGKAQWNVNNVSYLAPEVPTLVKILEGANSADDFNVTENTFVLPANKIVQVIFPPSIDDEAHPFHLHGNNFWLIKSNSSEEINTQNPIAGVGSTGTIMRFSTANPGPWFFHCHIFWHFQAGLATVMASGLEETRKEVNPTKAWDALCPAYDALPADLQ
The assay is described as follows: ABTS oxidation, absorbance at […] nm. It counts as biochemical. The settings on record: 1.25 mM ABTS; 50 mM sodium citrate pH 3.0; partially purified fraction P2-2.

For the next assay, the target named is T2, Lcc5 (Lentinula edodes, UniProt R9WU11).
T2 construct: native, partially purified from sawdust medium (fraction P1-1), 68 kDa on SDS-PAGE
T2 sequence (R9WU11 22-515): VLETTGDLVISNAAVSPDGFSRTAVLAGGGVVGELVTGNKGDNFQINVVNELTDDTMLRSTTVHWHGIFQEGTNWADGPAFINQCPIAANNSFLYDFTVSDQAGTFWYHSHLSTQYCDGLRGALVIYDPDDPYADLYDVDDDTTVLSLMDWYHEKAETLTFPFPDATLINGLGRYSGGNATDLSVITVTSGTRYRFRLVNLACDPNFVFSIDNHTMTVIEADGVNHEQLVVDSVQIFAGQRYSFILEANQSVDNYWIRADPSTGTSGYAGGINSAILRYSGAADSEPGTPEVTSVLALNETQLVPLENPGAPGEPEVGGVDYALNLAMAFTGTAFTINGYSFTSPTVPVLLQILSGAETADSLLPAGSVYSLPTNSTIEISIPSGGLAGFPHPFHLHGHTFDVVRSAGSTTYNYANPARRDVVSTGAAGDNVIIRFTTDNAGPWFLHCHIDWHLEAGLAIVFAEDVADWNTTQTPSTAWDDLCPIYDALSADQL
Description: ABTS oxidation, absorbance at […] nm. It counts as biochemical. The note with it: 1.25 mM ABTS; 50 mM sodium citrate pH 3.0; partially purified fraction P1-1.

For the compound `CCn1c(=NN=c2sc3cc(S(=O)(=O)O)ccc3n2CC)sc2cc(S(=O)(=O)O)ccc21` [ABTS, 2,2-azino-bis (3-ethylbenzothiazoline-6-sulfonic acid) diammonium salt], the “ABTS oxidation, absorbance at 420 nm” value at Lcc13 and at Lcc5 was “the Lcc purification was performed based on the enzymatic activity for ABTS” each time.
